From patent US20260130851A1, “PLINABULIN MICELLE COMPOSITION AND PREPARATION METHOD THEREFOR” (priority 2022, published 2026) come the findings set out here.

Converted amounts (≈) assume the structure as drawn. Where two headings read alike, the source gives them in different places.

This series in a line: Equilibrium solubility of Plinabulin in propylene glycol-D5W diluents (HPLC). Format: physicochemical. The settings on record: for Control Group - Absolute Ethanol Test Concentration: 25° C. The method, then: Corresponding propylene glycol-D5W injections were prepared. The preparation process was as follows: • Diluent 1 (corresponding to a dilution ratio of 1:20). Weigh about 6 g of propylene glycol, place it in a beaker, add 200 ml of D5W injection, and mix well. • Diluent 2 (corresponding to a dilution ratio of 1:30). Weigh about 4 g of propylene glycol, place it in a beaker, add 200 ml of D5W injection, and mix well. • Diluent 3 (corresponding to a dilution ratio of 1:50): Weigh about 2.4 g of propylene glycol, place it in a beaker, add 200 ml of D5W injection, and mix well.
Acceptance criteria: The concentration of Plinabulin in each solution was determined until there was no significant difference between two consecutive determinations, i.e., equilibrium solubility.
Test solutions were taken at different time points, filtered through a 0.45 μm glass fiber membrane, and injected into the high-performance liquid chromatography system. The equilibrium solubility of Plinabulin in solutions with different ratios at various time points was calculated by the external standard method.

On to `CC(C)(C)c1[nH]cnc1/C=c1\[nH]c(=O)/c(=C/c2ccccc2)[nH]c1=O` [Plinabulin, (3Z,6Z)-3-[(5-tert-butyl-1H-imidazol-4-yl)methylene]-6-(phenylmethylene)-2,5-piperazinedione], for which the “Control Group - Absolute Ethanol Test Concentration” value is 0.152 µg/mL (Test Sample 1 (49.5 h), Diluent 1 (about 6 g propylene glycol + 200 ml D5W, 1:20), 100 rpm); 0.125 µg/mL (Test Sample 2 (48.5 h), Diluent 2 (about 4 g propylene glycol + 200 ml D5W, 1:30), 100 rpm); 0.113 µg/mL (Test Sample 3 (49 h), Diluent 3 (about 2.4 g propylene glycol + 200 ml D5W, 1:50), 100 rpm). The solubility thermodynamic at 49.5 h runs as follows: (propylene glycol-D5W diluent, 25 °C, saline or isotonic, thermodynamic from solid, Test Sample 1 (1:20) dilution level, 49.5 h, read-out: Test Concentration (equilibrium solubility)) 0.152 µg/mL (≈ 0.452 µM); (propylene glycol-D5W diluent, 25 °C, saline or isotonic, thermodynamic from solid, Test Sample 1 (49.5 h), Diluent 1 (about 6 g propylene glycol + 200 ml D5W, 1:20), 100 rpm, read-out: Control Group - Diluent Test Concentration) 0.155 µg/mL. In addition, the solubility thermodynamic at 72 h (propylene glycol-D5W diluent, 25 °C, saline or isotonic, thermodynamic from solid, Test Sample 1 (1:20) dilution level, 72 h, read-out: Test Concentration (equilibrium solubility)) amounted to 0.145 µg/mL (≈ 0.431 µM). Besides, the solubility thermodynamic at 94 h (propylene glycol-D5W diluent, 25 °C, saline or isotonic, thermodynamic from solid, Test Sample 1 (1:20) dilution level, 94 h, read-out: Test Concentration (equilibrium solubility)) was 0.143 µg/mL (≈ 0.425 µM). The solubility thermodynamic at 48.5 h turned out to be 0.125 µg/mL (≈ 0.372 µM) (propylene glycol-D5W diluent, 25 °C, saline or isotonic, thermodynamic from solid, Test Sample 2 (1:30) dilution level, 48.5 h, read-out: Test Concentration (equilibrium solubility)) and 0.13 µg/mL (propylene glycol-D5W diluent, 25 °C, saline or isotonic, thermodynamic from solid, Test Sample 2 (48.5 h), Diluent 2 (about 4 g propylene glycol + 200 ml D5W, 1:30), 100 rpm, read-out: Control Group - Diluent Test Concentration). Further, the solubility thermodynamic at 73 h (propylene glycol-D5W diluent, 25 °C, saline or isotonic, thermodynamic from solid, Test Sample 2 (1:30) dilution level, 73 h, read-out: Test Concentration (equilibrium solubility)) was 0.112 µg/mL (≈ 0.333 µM). In addition, the solubility thermodynamic at 94.5 h (propylene glycol-D5W diluent, 25 °C, saline or isotonic, thermodynamic from solid, Test Sample 2 (1:30) dilution level, 94.5 h, read-out: Test Concentration (equilibrium solubility)) came out at 0.113 µg/mL (≈ 0.336 µM). The solubility thermodynamic at 49 h (propylene glycol-D5W diluent, 25 °C, saline or isotonic, thermodynamic from solid, Test Sample 3 (1:50) dilution level, 49 h, read-out: Test Concentration (equilibrium solubility)) is 0.113 µg/mL (≈ 0.336 µM) and the solubility thermodynamic at 49 h (propylene glycol-D5W diluent, 25 °C, saline or isotonic, thermodynamic from solid, Test Sample 3 (49 h), Diluent 3 (about 2.4 g propylene glycol + 200 ml D5W, 1:50), 100 rpm, read-out: Control Group - Diluent Test Concentration) worked out at 0.117 µg/mL. Moreover, the solubility thermodynamic at 73.5 h (propylene glycol-D5W diluent, 25 °C, saline or isotonic, thermodynamic from solid, Test Sample 3 (1:50) dilution level, 73.5 h, read-out: Test Concentration (equilibrium solubility)) amounted to 0.095 µg/mL (≈ 0.282 µM). Also, the solubility thermodynamic at 96 h (propylene glycol-D5W diluent, 25 °C, saline or isotonic, thermodynamic from solid, Test Sample 3 (1:50) dilution level, 96 h, read-out: Test Concentration (equilibrium solubility)) is 0.134 µg/mL (≈ 0.398 µM). Besides, the solubility thermodynamic at 120 h (propylene glycol-D5W diluent, 25 °C, saline or isotonic, thermodynamic from solid, Test Sample 3 (1:50) dilution level, 120 h, read-out: Test Concentration (equilibrium solubility)) is 0.135 µg/mL (≈ 0.401 µM).
